Where “and” joins values, the source holds several entries; their conditions need not be identical. Equal entries are not always repeated.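 How tested: cells in 96-well plates exposed to compound for 48 hours at five concentrations. GI50 marks 50% less growth. TGI: concentration producing complete growth inhibition.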

Some test systems named below: BT-549 breast; CCRF-CEM leukemia; HCT-116 colon; HT29 colon; MALME-3M melanoma; NCI-H23 lung; NCI/ADR-RES ovarian; OVCAR-5 ovarian; SN12C renal; SNB-19 CNS.
What all share (experiment): NCI-60 cell line screen, 48 h

As for `C[N+](C)(C)CC1CCCc2ccccc2C1=O` (stereo not drawn), the TGI with BT-549 breast was 33.4 µM; with CCRF-CEM leukemia, 5.77 µM and 1.11 µM; in the experiment with HCT-116 colon, 3.27 µM and 8.46 µM; in the experiment with HT29 colon it was 30.7 µM; in the experiment with MALME-3M melanoma it was 12 µM; with NCI-H23 lung, 35 µM. Moreover, the TGI was 54 µM in the experiment on NCI/ADR-RES ovarian, 28.8 µM with OVCAR-5 ovarian, 38.5 µM with SN12C renal and 85.6 µM with SNB-19 CNS. The GI50 in the experiment on CCRF-CEM leukemia is 0.42 µM; in the experiment with HCT-116 colon, 4.27 µM; in the experiment with HT29 colon it was 7.65 µM; with NCI/ADR-RES ovarian it was 22.4 µM; with SN12C renal, 18.9 µM.
As for `O=C(O)COc1ccc2c(=O)c3sc4c(=O)c5ccccc5c(=O)c4c3c(=O)c2c1`, the GI50 with BT-549 breast was 6.99 µM; with CCRF-CEM leukemia it was 23.6 µM; in the experiment on HCT-116 colon, 15.7 µM; in the experiment on HT29 colon it was 22 µM; in the experiment with MALME-3M melanoma, 2.12 µM; in the experiment on NCI-H23 lung, 2.71 µM. The GI50 is 29.9 µM in the experiment on NCI/ADR-RES ovarian, 17.7 µM in the experiment on OVCAR-5 ovarian, 12.3 µM with SN12C renal and 7.51 µM in the experiment on SNB-19 CNS. Further, the TGI with BT-549 breast was 21.8 µM; with CCRF-CEM leukemia, 62.9 µM; with HCT-116 colon, 63.3 µM; in the experiment on HT29 colon, over 100 µM; in the experiment on MALME-3M melanoma, 4.59 µM; with NCI-H23 lung, 8.57 µM. Moreover, the TGI is over 100 µM in the experiment on NCI/ADR-RES ovarian, 34.3 µM with OVCAR-5 ovarian, 29.8 µM in the experiment on SN12C renal and 23.7 µM in the experiment on SNB-19 CNS.
Take `Cc1cc(Cl)cc(OCCn2cc(F)cn2)c1-c1nc(N)nc2c1CN(C(=O)NCC(C)(F)F)C2`: the GI50 was 50.3 µM in the experiment on BT-549 breast; 0.0507 µM with CCRF-CEM leukemia; 0.0548 µM in the experiment with HCT-116 colon; 0.0355 µM in the experiment on HT29 colon; 0.0684 µM with MALME-3M melanoma; 0.273 µM with NCI-H23 lung. For the same compound, the GI50 was 53.1 µM in the experiment on NCI/ADR-RES ovarian, 2.66 µM with OVCAR-5 ovarian, 0.0745 µM in the experiment with SN12C renal and 0.477 µM in the experiment on SNB-19 CNS. Further, the TGI with BT-549 breast, in the experiment with CCRF-CEM leukemia, in the experiment with HCT-116 colon, in the experiment on HT29 colon, with MALME-3M melanoma and in the experiment on NCI-H23 lung was over 100 µM each time. Besides, the TGI in the experiment on NCI/ADR-RES ovarian, in the experiment on OVCAR-5 ovarian, in the experiment with SN12C renal and with SNB-19 CNS was over 100 µM each time.
As for `Cn1cc(C2=C(c3ccc(N)cc3)C(=O)NC2=O)c2ccccc21`, the GI50 is 11.4 µM with BT-549 breast; 12.3 µM with CCRF-CEM leukemia; 11.3 µM in the experiment with HCT-116 colon; 12.5 µM with HT29 colon; over 25 µM with MALME-3M melanoma; 21.6 µM in the experiment on NCI-H23 lung. Besides, the GI50 with NCI/ADR-RES ovarian was 21.8 µM; with OVCAR-5 ovarian it was over 25 µM; with SN12C renal, 16.3 µM; in the experiment on SNB-19 CNS, over 25 µM. In addition, the TGI in the experiment with BT-549 breast, in the experiment with CCRF-CEM leukemia, with HCT-116 colon, in the experiment on HT29 colon, in the experiment with MALME-3M melanoma and in the experiment on NCI-H23 lung was over 25 µM in each case. Further, the TGI in the experiment on NCI/ADR-RES ovarian, with OVCAR-5 ovarian, in the experiment with SN12C renal and in the experiment with SNB-19 CNS was over 25 µM in each case.
As for `COc1ccc(/C=C\[N+](=O)[O-])cc1OC`, the GI50 in the experiment on BT-549 breast was 2.26 µM; in the experiment on CCRF-CEM leukemia, 3.2 µM; in the experiment on HCT-116 colon, 1.37 µM; in the experiment with HT29 colon, 1.87 µM; with MALME-3M melanoma it was 22.6 µM; in the experiment on NCI-H23 lung, 2.24 µM. Besides, the GI50 in the experiment on NCI/ADR-RES ovarian was 7.08 µM; with OVCAR-5 ovarian, 4.51 µM; in the experiment on SN12C renal it was 3.06 µM; in the experiment with SNB-19 CNS, 9.75 µM. In addition, the TGI stood at 5.21 µM with BT-549 breast; 22.7 µM in the experiment on CCRF-CEM leukemia; 2.85 µM with HCT-116 colon; 5.87 µM with HT29 colon; 43.5 µM with MALME-3M melanoma; 6.52 µM with NCI-H23 lung. Further, the TGI with NCI/ADR-RES ovarian was determined as 36.8 µM; in the experiment with OVCAR-5 ovarian, 19.3 µM; with SN12C renal, 13.2 µM; in the experiment with SNB-19 CNS, 25.1 µM.
Take `Cc1cc(Nc2ccc(NC(=O)c3ccc(Nc4ccnc5ccccc45)cc3)cc2)nc(N)n1`: the GI50 is 2.25 µM in the experiment with BT-549 breast; 2 µM in the experiment on MALME-3M melanoma; over 100 µM with NCI/ADR-RES ovarian; 3.4 µM with OVCAR-5 ovarian; 2.13 µM in the experiment on SN12C renal. Further, the TGI with BT-549 breast was 5.74 µM; with MALME-3M melanoma it was 4.65 µM; in the experiment on NCI/ADR-RES ovarian, over 100 µM; in the experiment with OVCAR-5 ovarian it was 37.5 µM; in the experiment with SN12C renal, 5.02 µM.
`Cc1ccc(SC2c3ccc(C)cc3Oc3nc(N)c(C#N)c(N)c32)cc1` (stereo not drawn): the GI50 was 1.63 µM in the experiment on BT-549 breast; 2.18 µM with CCRF-CEM leukemia; 1.88 µM in the experiment on HCT-116 colon; 2 µM with HT29 colon; 1.77 µM in the experiment on MALME-3M melanoma; 2.79 µM in the experiment with NCI/ADR-RES ovarian. The GI50 with OVCAR-5 ovarian is 1.76 µM; in the experiment on SNB-19 CNS, 1.86 µM. Further, the TGI in the experiment with BT-549 breast was 3.25 µM; in the experiment with CCRF-CEM leukemia it was 6.77 µM; with HCT-116 colon, 3.58 µM; in the experiment on HT29 colon, 3.9 µM; in the experiment with MALME-3M melanoma, 3.6 µM; in the experiment on NCI/ADR-RES ovarian, 9.73 µM. The TGI is 3.45 µM with OVCAR-5 ovarian and 3.71 µM in the experiment on SNB-19 CNS.
For the compound `Nc1ccc([N+](=O)[O-])cc1N=C/C=C/c1ccccc1`, the GI50 was 12.5 µM in the experiment on BT-549 breast; 7.86 µM with HCT-116 colon; 5.05 µM in the experiment on HT29 colon; 25.1 µM in the experiment with MALME-3M melanoma; 18.4 µM in the experiment on NCI-H23 lung; 7.84 µM with NCI/ADR-RES ovarian. The GI50 in the experiment on OVCAR-5 ovarian is 81.2 µM; in the experiment with SN12C renal, 8.06 µM; with SNB-19 CNS, 31.5 µM. The TGI in the experiment on BT-549 breast was over 100 µM; with HCT-116 colon, 25 µM; in the experiment with HT29 colon, 67.1 µM; with MALME-3M melanoma it was over 100 µM; in the experiment with NCI-H23 lung it was over 100 µM; with NCI/ADR-RES ovarian it was over 100 µM. Also, the TGI with OVCAR-5 ovarian, in the experiment on SN12C renal and in the experiment on SNB-19 CNS was over 100 µM throughout.
For `CSc1nc(=O)n(CCC#N)nc1SC`, the TGI in the experiment with BT-549 breast is 55.1 µM; in the experiment with HCT-116 colon, 30.1 µM; in the experiment with HT29 colon, over 100 µM; in the experiment with MALME-3M melanoma, 48.6 µM; in the experiment on NCI-H23 lung, over 100 µM; in the experiment on NCI/ADR-RES ovarian, over 100 µM. The TGI with OVCAR-5 ovarian, with SN12C renal and in the experiment with SNB-19 CNS was over 100 µM in each case.
